# In the supplement of paper PMC9938120:
# Tests used:
# Assay in all cases: drug sensitivity score (DSS3, normalised partial AUC of % inhibition dose-response) (DSS (score)); higher = more sensitive (stronger inhibition of viability); extreme values may be limits of the assay
# Conditions in all cases: 72 h; library: FO5A; assay format: 2D, 384-well, CellTiter-Glo
# FMOC22 = test system: FMOC22 (patient-derived mucinous ovarian cancer cells)
# Summary of the method: (§1)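 The drug sensitivity score is calculated as a partial area under the percent-inhibition dose-response curve, divided by the log of the upper asymptote; higher scores mean more sensitive. For this score, early-passage (under 10) patient-derived ovarian cancer cells were exposed on 384-well flat clear-bottom plates to compounds at five concentrations across a 10,000-fold range for 72 h at 37 °C, 5% CO2. Viability was read with CellTiter-Glo and processed in Breeze.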
# FMOC14 = test system: FMOC14 (patient-derived high-grade serous ovarian cancer cells)
# Summary of the method: as §1
# FMOC03 = test system: FMOC03 (patient-derived mucinous ovarian cancer cells)
# Summary of the method: as §1
# FMOC25_2 = test system: FMOC25_2 (patient-derived low-grade serous ovarian cancer cells)
# Summary of the method: as §1
# FMOC02_3 = test system: FMOC02_3 (patient-derived low-grade serous ovarian cancer cells)
# Summary of the method: as §1
# FMOC11 = test system: FMOC11 (patient-derived high-grade serous ovarian cancer cells)
# Summary of the method: as §1
# FMOC02_2 = test system: FMOC02_2 (patient-derived low-grade serous ovarian cancer cells)
# Summary of the method: as §1
# FMOC04 = test system: FMOC04 (patient-derived high-grade serous ovarian cancer cells)
# Summary of the method: as §1
# FMOC02_1 = test system: FMOC02_1 (patient-derived low-grade serous ovarian cancer cells)
# Summary of the method: as §1
# FMOC17 = test system: FMOC17 (patient-derived low-grade serous ovarian cancer cells)
# Summary of the method: as §1
# FMOC27 = test system: FMOC27 (patient-derived low-grade serous ovarian cancer cells)
# Summary of the method: as §1
# FMOC06 = test system: FMOC06 (patient-derived mucinous ovarian cancer cells)
# Summary of the method: as §1
# FMOC28 = test system: FMOC28 (patient-derived low-grade serous ovarian cancer cells)
# Summary of the method: as §1
# FMOC09 = test system: FMOC09 (patient-derived high-grade serous ovarian cancer cells)
# Summary of the method: as §1
# FMOC24 = test system: FMOC24 (patient-derived high-grade serous ovarian cancer cells)
# Summary of the method: as §1
SMILES,drug sensitivity score (FMOC22),drug sensitivity score (FMOC14),drug sensitivity score (FMOC03),drug sensitivity score (FMOC25_2),drug sensitivity score (FMOC02_3),drug sensitivity score (FMOC11),drug sensitivity score (FMOC02_2),drug sensitivity score (FMOC04),drug sensitivity score (FMOC02_1),drug sensitivity score (FMOC17),drug sensitivity score (FMOC27),drug sensitivity score (FMOC06),drug sensitivity score (FMOC28),drug sensitivity score (FMOC09),drug sensitivity score (FMOC24)
C[C@H]1C[C@@H](n2c(Nc3ccc(OC(F)(F)F)cc3)nc3cc(CCC(=O)O)ccc32)CC(C)(C)C1,1.1,0,0,0,0.3,0.6,0,0,0,0,0,0,0,0,4.1
Cc1c(-c2c(-c3ccc(F)o3)sc3ncnc(O[C@H](Cc4ccccc4OCc4ccnn4CC(F)(F)F)C(=O)O)c23)ccc(OCCN2CCN(C)CC2)c1Cl,0,0,0,0,2.8,0,0,0.05,0,0,0,0,0,0,8
O=C1Cc2cc(C(=O)NC3C[C@H]4CC[C@@H](C3)N4S(=O)(=O)CC3CCN(CCCC(F)(F)F)CC3)c(Cl)cc2N1 (stereo not given in full),0,0,0,0,0,0,0,0,0,0,0,2.3,0.2,0,0
COc1cc2c(cc1OCCCN1CCCC1)N=C(N)C21CCC1 [A-366],0,0.5,0.7,4.9,0,1.1,0.2,3.9,3.9,2.3,0,0,0.1,2.3,7.2
C[C@H](Nc1ncnc2[nH]cnc12)c1cc2ccc(F)cc2nc1-c1ccccn1 [AMG319],0,0,0,0,0,0,0.1,0,0,0.1,0,0,0,0,0.7
COCCOc1cnc2ccn([C@H](C)c3nnc4c(F)cc(-c5cnn(C)c5)cn34)c(=O)c2c1 [AMG-337],0,0,0,0,0,0,0,0,0,0,0,0,3.4,0,0
CN(C)CCCOc1ccc(-c2ccc3ncc4c(c3c2)n(C2CCOCC2)c(=O)n4C)cn1 [AZD0156],0.9,0,0.5,2.5,3.1,0,3.4,0.8,5.3,2.2,0,0.1,4.6,0.1,0
COc1cc2ncnc(Nc3cccc(Cl)c3F)c2cc1OC(=O)N1CCN(C)C[C@H]1C [AZD3759],0,0.5,4.8,4.2,5.9,3.3,5.4,0.25,6.4,7,2.8,0.2,5,2.8,0
CC#CC(=O)N1CCC[C@H]1c1nc(-c2ccc(C(=O)Nc3ccccn3)cc2)c2c(N)nccn12 [Acalabrutinib],0,0,0,0,0.7,0.2,0,0.6,0.3,2.2,0,2.6,0.5,0.8,0
COc1cc(C)c(/C=C/C(C)=C/C=C/C(C)=C/C(=O)O)c(C)c1C [Acitretin],0,0,0,0,3.4,2.8,0.7,0,0.2,0,0,0.1,0.3,0,0
O=C(Nc1cc(Oc2cc(F)c(NC(=O)C3(C(=O)Nc4ccc(F)cc4)CC3)cc2F)ccn1)C1CC1 [Altiratinib],4.3,5.1,5,9.1,5.1,2.4,5.2,1.05,4.9,3,5.1,6.9,3.3,1.7,8.2
CNC(=O)c1ccc(N2C(=S)N(c3cnc(C#N)c(C(F)(F)F)c3)C(=O)C23CCC3)cc1F [Apalutamide],0,0,0,0,0,0,0,0,0,0,0,0,3.4,0,0.45
